Several values for one entry are separate records, joined by “and”; a condition that tells them apart may be missing. Identical values can stand only once.
Key:
[1] = tested on: NC(=O)CC[C@H](N)C(=O)O; assay: purified protein, by the assay type; conditions: other: Gln, 37° C, pH 8.5
[2] = tested on: NC(=O)C[C@H](N)C(=O)O; assay: purified protein, by the assay type; conditions: other: Asn, 37° C
[3] = molecular target: T1, Erwinia chrysanthemi L-asparaginase (ErA) variant A31I-E63Q (ErA-DM2), SEQ ID NO:4 (Dickeya chrysanthemi, UniProt P06608, A52I/E84Q); type: biochemical
T1 construct: lacking the first 21-amino acid residue signal peptide; His6-SUMO (yeast Smt3p) (N, cleaved yes); made in house; host or cells: E. coli BL21(DE3) C41
Experimental: (§1) A conventional assay for determining L-glutaminase activity (Gella & Pascual (1982) Anal. Biochem. 127:322-5) was used with some modifications. The purified enzyme was mixed into a solution containing 50 mM Tris-HCl pH 8.5, 1 mg/mL BSA, 7 U GDH (Glutamate dehydrogenase, Sigma-Aldrich), 3 mM INT (Iodonitrotetrazolium chloride, Sigma-Aldrich), 100 mM PMS (Phenazine methosulfate, Sigma-Aldrich), and 100 mM NAD+. […] The latter, in the presence of NAD+ and under the catalysis of GDH, is broken further into α-ketoglutarate and ammonia. NADH produced by this second reaction, together with INT serve as inputs to the third reaction, where the formation of INT-formazan under the catalysis of PMS can be followed spectrophotometrically as an increase in absorbance at 500 nm. All reactions were carried out at 37° C. 1 IU of enzyme is defined as the amount of enzyme used to produce 1 μmole of product in 1 minute at 37° C.
(§2) Using colorimetric enzyme-coupled assays, L-asparaginase and L-glutaminase activity of the enzymes was determined.

[4] = molecular target: T2, Erwinia chrysanthemi L-asparaginase (ErA) variant E63Q-S254N (ErA-DM1), SEQ ID NO:3 (Dickeya chrysanthemi, UniProt P06608, E84Q/S275N); type: biochemical
T2 construct: lacking the first 21-amino acid residue signal peptide; His6-SUMO (yeast Smt3p) (N, cleaved yes); made in house; host or cells: E. coli BL21(DE3) C41
Experimental: as §1, §2

[5] = molecular target: T3, Erwinia chrysanthemi L-asparaginase (ErA) variant E63Q-S254Q (ErA-DM3), SEQ ID NO:5 (Dickeya chrysanthemi, UniProt P06608, E84Q/S275N); assay: L-glutaminase activity, GDH/INT coupled assay; type: biochemical; conditions: Gln, head prints 50 mM
T3 construct: lacking the first 21-amino acid residue signal peptide; His6-SUMO (yeast Smt3p) (N, cleaved yes); made in house; host or cells: E. coli BL21(DE3) C41
Experimental: as §1, §2

[6] = molecular target: T4, Erwinia chrysanthemi L-asparaginase (ErA) variant E63Q-S254Q (ErA-DM3), SEQ ID NO:5 (Dickeya chrysanthemi, UniProt P06608, E84Q/S275Q); assay: L-glutaminase activity, GDH/INT coupled assay; type: biochemical
T4 construct: lacking the first 21-amino acid residue signal peptide; His6-SUMO (yeast Smt3p) (N, cleaved yes); made in house; host or cells: E. coli BL21(DE3) C41
Experimental: as §1, §2

[7] = tested on: Erwinia chrysanthemi L-asparaginase (ErA) variant E63Q-S254Q (ErA-DM3), SEQ ID NO:5; assay: L-glutaminase activity, GDH/INT coupled assay; type: biochemical; conditions: Gln, 37° C
Experimental: as §1, §2

[8] = molecular target: T5, Erwinia chrysanthemi L-asparaginase, wild type (ErA-WT), SEQ ID NO:1 (Dickeya chrysanthemi, UniProt P06608); assay: L-glutaminase activity, GDH/INT coupled assay; type: biochemical
T5 construct: lacking the first 21-amino acid residue signal peptide; His6-SUMO (yeast Smt3p) (N, cleaved yes); made in house; host or cells: E. coli BL21(DE3) C41
Experimental: as §1, §2

[9] = molecular target: T6, Escherichia coli L-asparaginase, wild type (EcA-WT), SEQ ID NO:9 (Escherichia coli, UniProt P00805); assay: L-glutaminase activity, GDH/INT coupled assay; type: biochemical
T6 sequence (P00805 with tags, fused parts or gaps): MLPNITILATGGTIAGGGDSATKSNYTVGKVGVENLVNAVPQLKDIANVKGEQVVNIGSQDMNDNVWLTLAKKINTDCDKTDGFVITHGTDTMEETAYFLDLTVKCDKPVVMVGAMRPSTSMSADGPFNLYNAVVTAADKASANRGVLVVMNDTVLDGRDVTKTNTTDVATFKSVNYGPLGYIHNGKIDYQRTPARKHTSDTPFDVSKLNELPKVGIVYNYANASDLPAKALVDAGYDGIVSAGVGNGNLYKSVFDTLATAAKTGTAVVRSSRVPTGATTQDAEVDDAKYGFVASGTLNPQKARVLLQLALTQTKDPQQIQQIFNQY
Experimental: as §1

[10] = molecular target: Erwinia chrysanthemi L-asparaginase (ErA) variant A31I-E63Q-S254Q (ErA-TM2), SEQ ID NO:6 (Dickeya chrysanthemi, UniProt P06608, A52I/E84Q/S275Q)
Experimental: as §1

[11] = molecular target: T7, Erwinia chrysanthemi L-asparaginase (ErA) variant A31I-E63Q-S254N (ErA-TM1), SEQ ID NO:7 (Dickeya chrysanthemi, UniProt P06608, A52I/E84Q/S275N); type: biochemical
T7 construct: lacking the first 21-amino acid residue signal peptide; His6-SUMO (yeast Smt3p) (N, cleaved yes); made in house; host or cells: E. coli BL21(DE3) C41
Experimental: as §1

[12] = tested on: Erwinia chrysanthemi L-asparaginase (ErA) variants ErA-E63Q, ErA-DM2 (A31I-E63Q) and ErA-DM1 (E63Q-S254N); assay: L-glutaminase activity of the mutants as a group vs ErA-WT; type: biochemical
Experimental: as §1, §2

[13] = molecular target: Erwinia chrysanthemi L-asparaginase (ErA) variant E63Q (ErA-E63Q), SEQ ID NO:2 (Dickeya chrysanthemi, UniProt P06608, E84Q); type: biochemical; parameters: lacking the first 21-amino acid residue signal peptide; His6-SUMO (yeast Smt3p) (N, cleaved yes); made in house; host or cells: E. coli BL21(DE3) C41
Experimental: as §1, §2

[14] = tested on: NC(=O)C[C@H](N)C(=O)O; assay: purified protein, by the assay type; type: biochemical, Erwinia chrysanthemi; conditions: other: Asn, 37° C
Experimental: (§3) L-asparaginase activity was determined using a continuous spectroscopic enzyme-coupled assay as previously described (Schalk, et al. (2014) J. Biol. Chem. 289:33175-33186). In brief, the assay measures the production of L-aspartate through the 1:1 oxidation of reduced NADH. The conversion of NADH to NAD^+ was measured spectrophotometrically as a decrease in absorbance at 340 nm at 37° C. All measurements were taken in triplicate. Rates were fit to the Michaelis-Menten equation using SIGMAPLOT software (Systat Software Inc).
Using colorimetric enzyme-coupled assays, L-asparaginase and L-glutaminase activity of the enzymes was determined. […] Seventeen of the 18 mutants had reduced L-glutaminase activity (Table 7). However, for most of the mutants, this decrease was concomitant with a decline in the L-asparaginase activity. Using the criteria of (i) ≥60% retained L-asparaginase activity (relative to Erw-WT) and (ii) ≤5% L-glutaminase versus and L-asparaginase activity, mutants ErA-E63Q, ErA-S254P, ErA-A31I+E63Q and ErA-S254N+E63Q were selected for further study.

[15] = tested on: NC(=O)C[C@H](N)C(=O)O; assay: purified protein, by the assay type; type: biochemical, Erwinia chrysanthemi; conditions: other: Asn, 37° C; remark: listed apart in the source
[16] = substrate: NC(=O)C[C@H](N)C(=O)O; assay: L-asparaginase activity, continuous spectroscopic enzyme-coupled assay; type: biochemical, Escherichia coli; conditions: other: Asn, 37° C
Experimental: as §3
The parameters that define the asparagine-depleting power of such enzyme drugs are of significance. […] Enzymologists often combine these two parameters into a single value (kcat/Km) that is thought to represent the efficiency of the enzyme. […] Therefore, the ErA enzyme was selected for developing a variant with low L-glutaminase activity.

[17] = substrate: NC(=O)CC[C@H](N)C(=O)O; assay: L-glutaminase activity, GDH/INT coupled assay; type: biochemical, Escherichia coli; conditions: other: Gln, 37° C, pH 8.5
Experimental: as §1

Erwinia chrysanthemi L-asparaginase (ErA) variant A31I-E63Q-S254Q (ErA-TM2), SEQ ID NO:6 (Dickeya chrysanthemi; A52I/E84Q/S275Q)
Km [1]: 47.5 ± 0.7 mM

Erwinia chrysanthemi L-asparaginase (ErA) variant E63Q (ErA-E63Q), SEQ ID NO:2 (Dickeya chrysanthemi; E84Q)
Km [2]: 0.051 mM

NC(=O)CC[C@H](N)C(=O)O [Gln, L-glutamine]
kobs @100 μM ([3]; 100 μM Gln): 0.105 s⁻¹
kobs @0.5 mM ([3]; 0.5 mM Gln): 0.83 s⁻¹
kobs @500 μM ([3]; 500 μM Gln): 0.73 s⁻¹
kobs @1 mM ([3]; 1 mM Gln): 2.20 s⁻¹
Km ([3]; Gln, 37° C): 2.73 ± 0.02 mM
kcat ([3]; Gln, 37° C): 6.01 ± 0.13 s⁻¹
kcat/Km ([3]; Gln, 37° C): 2.2 × 10^−3 sec^−1μM^−1
kobs @100 μM ([4]; 100 μM Gln): 0.019 s⁻¹
kobs @0.5 mM ([4]; 0.5 mM Gln): 0.11 s⁻¹
kobs @500 μM ([4]; 500 μM Gln): 0.07 s⁻¹
kobs @1 mM ([4]; 1 mM Gln): 0.18 s⁻¹
Km ([4]; Gln, 37° C): 15.8 ± 0.3 mM
kcat ([4]; Gln, 37° C): 2.93 ± 0.03 s⁻¹
kcat/Km ([4]; Gln, 37° C): 0.19 × 10^−3 sec^−1μM^−1
kobs @ 50 mM [5]: 0.11 s⁻¹
kobs @100 μM ([6]; 100 μM Gln): 0.009 s⁻¹
kobs @0.5 mM ([6]; 0.5 mM Gln): 0.0226 s⁻¹
kobs @500 μM ([6]; 500 μM Gln): 0.02 s⁻¹
kobs @1 mM ([6]; 1 mM Gln): 0.19 s⁻¹
Km [7]: 84 mM
kobs @100 μM ([8]; 100 μM Gln): 6.118 s⁻¹
kobs @0.5 mM ([8]; 0.5 mM Gln): 15.87 s⁻¹
kobs @500 μM ([8]; 500 μM Gln): 15.06 s⁻¹
kobs @1 mM ([8]; 1 mM Gln): 19.22 s⁻¹
kcat/Km ([8]; Gln, 37° C): 74.56 × 10^−3 sec^−1μM^−1
kobs @ 50 mM ([8]; Gln, head prints 50 mM): 15.87 s⁻¹
kobs @100 μM ([9]; 100 μM Gln): 0.047 s⁻¹
kobs @0.5 mM ([9]; 0.5 mM Gln): 0.22 s⁻¹
kobs @500 μM ([9]; 500 μM Gln): 0.22 s⁻¹
kobs @1 mM ([9]; 1 mM Gln): 0.36 s⁻¹
kobs @ 50 mM ([9]; Gln): 0.22 s⁻¹
kcat/Km ([9]; Gln, 37° C): 0.64 × 10^−3 sec^−1μM^−1
kobs @100 μM ([10]; 100 μM Gln): 0.0045 s⁻¹
kobs @0.5 mM ([10]; 0.5 mM Gln): 0.0083 s⁻¹
kobs @500 μM ([10]; 500 μM Gln): 0.0083 s⁻¹
Km ([10]; Gln, 37° C): 47.5 mM
kcat ([10]; Gln, 37° C): 1.836 ± 0.11 s⁻¹
kcat/Km ([10]; Gln, 37° C): 0.04 × 10^−3 sec^−1μM^−1
kobs @0.5 mM ([11]; 0.5 mM Gln): 0.11 s⁻¹
kobs @1 mM ([11]; 1 mM Gln): 0.33 s⁻¹
Km ([11]; Gln, 37° C): 28.2 mM
kcat ([11]; Gln, 37° C): 5.6 ± 0.2 s⁻¹
kcat/Km ([11]; Gln, 37° C): 0.19 × 10^−3 sec^−1μM^−1
observed L-glutaminase rate reduced by ([12]; 0.5 mM Gln, relative to ErA-WT): 95-99%
L-glutaminase efficiency (kcat/Km) reduced by ([12]; Gln, vs ErA-WT): 20-400 fold
increased Km (fold higher compared ErA-WT) ([12]; Gln, vs ErA-WT): 8-44 fold
reduced kcat (fold lower compared ErA-WT) ([12]; Gln, vs ErA-WT): 3-9 fold
kobs @100 μM ([13]; 100 μM Gln): 0.098 s⁻¹
kobs @0.5 mM ([13]; 0.5 mM Gln): 0.74 s⁻¹
kobs @500 μM ([13]; 500 μM Gln): 0.72 s⁻¹
kobs @1 mM ([13]; 1 mM Gln): 2.16 s⁻¹
Km ([13]; Gln, 37° C): 3.86 ± 0.23 mM
kcat ([13]; Gln, 37° C): 8.33 ± 0.16 s⁻¹
kcat/Km ([13]; Gln, 37° C): 3.68 sec^−1mM^−1 and 3.68 × 10^−3 sec^−1μM^−1

Erwinia chrysanthemi L-asparaginase (ErA) variant A31I-E63Q (ErA-DM2), SEQ ID NO:4 (Dickeya chrysanthemi; A52I/E84Q)
Km [14]: 0.037 mM

Erwinia chrysanthemi L-asparaginase (ErA) variant E63Q-S254N (ErA-DM1), SEQ ID NO:3 (Dickeya chrysanthemi; E84Q/S275N)
Km [15]: 0.185 mM

B1: Escherichia coli L-asparaginase, wild type (EcA-WT), SEQ ID NO:9 (Escherichia coli K-12) (protein)
chain: MLPNITILATGGTIAGGGDSATKSNYTVGKVGVENLVNAVPQLKDIANVKGEQVVNIGSQDMNDNVWLTLAKKINTDCDKTDGFVITHGTDTMEETAYFLDLTVKCDKPVVMVGAMRPSTSMSADGPFNLYNAVVTAADKASANRGVLVVMNDTVLDGRDVTKTNTTDVATFKSVNYGPLGYIHNGKIDYQRTPARKHTSDTPFDVSKLNELPKVGIVYNYANASDLPAKALVDAGYDGIVSAGVGNGNLYKSVFDTLATAAKTGTAVVRSSRVPTGATTQDAEVDDAKYGFVASGTLNPQKARVLLQLALTQTKDPQQIQQIFNQY
Km [16]: 0.015 ± 0.0005 mM
kcat [16]: 44.4 ± 0.3 s⁻¹
kcat/Km [16]: 2.96e+06 M⁻¹ s⁻¹
Km [17]: 1.38 ± 0.09 mM
kcat [17]: 0.89 ± 0.01 s⁻¹
kcat/Km [17]: 640 M⁻¹ s⁻¹

Source: patent US10821160B2, “L-asparaginase variants and fusion proteins with reduced L-glutaminase activity and enhanced stability” (priority 2016, dated 2020)
